Measured values reported in patent US9738634B2, “Heterocyclic amide compound and herbicide” (SYNGENTA PARTICIPATIONS AG, priority 2013, dated 2017).

Key:
Format in all cases: in vivo
[1] = test system: barnyard grass; assay: Test Example 1: weedkilling efficacy, preemergent weed treatment in the submerged state; A: barnyard grass; details: treatment dosage 1000 g/ha
Method in brief: (§1)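 Emulsion diluted with water to the specified per-hectare dosage is applied onto flood water (4 cm) over alluvial soil on the sowing day, with barnyard grass, bulrush and pondweed seeded and rice (2.5-leaf) transplanted; plants grow at 25–30 °C and are rated at 3 weeks.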

[2] = test system: bulrush; assay: Test Example 1: weedkilling efficacy, preemergent weed treatment in the submerged state; B: bulrush; details: treatment dosage 1000 g/ha
Method in brief: as §1

[3] = test system: oval-leafed pondweed; assay: Test Example 1: weedkilling efficacy, preemergent weed treatment in the submerged state; C: oval-leafed pondweed; details: treatment dosage 1000 g/ha
Method in brief: as §1

[4] = test system: transplanted rice; assay: Test Example 1: preemergent weed treatment in the submerged state, effect on crop; a: transplanted rice; details: treatment dosage 1000 g/ha
Method in brief: as §1

[5] = test system: barnyard grass; assay: Test Example 2: weedkilling efficacy, growth period weed treatment in the submerged state; A: barnyard grass; details: treatment dosage 1000 g/ha
Method in brief: (§2)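 First, alluvial soil in pots is flooded to 4 cm and mixed seed is sown. Next, plants grow in a greenhouse at 25 to 30° C until the 1-2 leaf stage. Then diluted emulsion is applied onto the water surface at the given g/ha rate, and injury is assessed after 3 weeks.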

[6] = test system: bulrush; assay: Test Example 2: weedkilling efficacy, growth period weed treatment in the submerged state; B: bulrush; details: treatment dosage 1000 g/ha
Method in brief: as §2

[7] = test system: oval-leafed pondweed; assay: Test Example 2: weedkilling efficacy, growth period weed treatment in the submerged state; C: oval-leafed pondweed; details: treatment dosage 1000 g/ha
Method in brief: as §2

[8] = test system: crabgrass; assay: Test Example 3: weedkilling efficacy through soil treatment; D: crabgrass; details: treatment dosage 1250 g/ha
Method in brief: (§3)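 Crop and weed responses were judged three weeks after a uniform surface spray of the water-diluted emulsion at the given g/ha rate. Seeds sat beneath about 1.5 cm of sterilized diluvial soil, and boxes stood in a greenhouse at 25 to 30° C.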

[9] = test system: green foxtail; assay: Test Example 3: weedkilling efficacy through soil treatment; E: green foxtail; details: treatment dosage 1250 g/ha
Method in brief: as §3

[10] = test system: wild oat; assay: Test Example 3: weedkilling efficacy through soil treatment; G: wild oat; details: treatment dosage 1250 g/ha
Method in brief: as §3

[11] = test system: black-grass; assay: Test Example 3: weedkilling efficacy through soil treatment; H: black-grass; details: treatment dosage 1250 g/ha
Method in brief: as §3

[12] = test system: Italian ryegrass; assay: Test Example 3: weedkilling efficacy through soil treatment; I: Italian ryegrass; details: treatment dosage 1250 g/ha
Method in brief: as §3

[13] = test system: Indian mallow; assay: Test Example 3: weedkilling efficacy through soil treatment; K: Indian mallow; details: treatment dosage 1250 g/ha
Method in brief: as §3

[14] = test system: redroot pigweed; assay: Test Example 3: weedkilling efficacy through soil treatment; L: redroot pigweed; details: treatment dosage 1250 g/ha
Method in brief: as §3

[15] = test system: fig-leafed goosefoot; assay: Test Example 3: weedkilling efficacy through soil treatment; M: fig-leafed goosefoot; details: treatment dosage 1250 g/ha
Method in brief: as §3

[16] = test system: chickweed; assay: Test Example 3: weedkilling efficacy through soil treatment; N: chickweed; details: treatment dosage 1250 g/ha
Method in brief: as §3

[17] = test system: catchweed; assay: Test Example 3: weedkilling efficacy through soil treatment; O: catchweed; details: treatment dosage 1250 g/ha
Method in brief: as §3

[18] = test system: birds-eye speedwell; assay: Test Example 3: weedkilling efficacy through soil treatment; p: birds-eye speedwell; details: treatment dosage 1250 g/ha
Method in brief: as §3

[19] = test system: directly sown rice; assay: Test Example 3: soil treatment, effect on crop; b: directly sown rice; details: treatment dosage 1250 g/ha
Method in brief: as §3

[20] = test system: corn; assay: Test Example 3: soil treatment, effect on crop; c: corn; details: treatment dosage 1250 g/ha
Method in brief: as §3

[21] = test system: soybean; assay: Test Example 3: soil treatment, effect on crop; d: soybean; details: treatment dosage 1250 g/ha
Method in brief: as §3

[22] = test system: wheat; assay: Test Example 3: soil treatment, effect on crop; e: wheat; details: treatment dosage 1250 g/ha
Method in brief: as §3

[23] = test system: beet; assay: Test Example 3: soil treatment, effect on crop; f: beet; details: treatment dosage 1250 g/ha
Method in brief: as §3

[24] = test system: crabgrass; assay: Test Example 4: weedkilling efficacy by foliar treatment; D: crabgrass; details: treatment dosage 1250 g/ha
Method in brief: (§4)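 Seeds are spot-sown into sterilized diluvial soil and covered with about 1.5 cm of soil. After 14 days' greenhouse growth at 25 to 30° C, plants are sprayed on stems and leaves with diluted emulsion at the stated g/ha rate, then scored at 3 weeks.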

[25] = test system: green foxtail; assay: Test Example 4: weedkilling efficacy by foliar treatment; E: green foxtail; details: treatment dosage 1250 g/ha
Method in brief: as §4

[26] = test system: wild oat; assay: Test Example 4: weedkilling efficacy by foliar treatment; G: wild oat; details: treatment dosage 1250 g/ha
Method in brief: as §4

[27] = test system: black-grass; assay: Test Example 4: weedkilling efficacy by foliar treatment; H: black-grass; details: treatment dosage 1250 g/ha
Method in brief: as §4

[28] = test system: Italian ryegrass; assay: Test Example 4: weedkilling efficacy by foliar treatment; I: Italian ryegrass; details: treatment dosage 1250 g/ha
Method in brief: as §4

[29] = test system: Indian mallow; assay: Test Example 4: weedkilling efficacy by foliar treatment; K: Indian mallow; details: treatment dosage 1250 g/ha
Method in brief: as §4

[30] = test system: redroot pigweed; assay: Test Example 4: weedkilling efficacy by foliar treatment; L: redroot pigweed; details: treatment dosage 1250 g/ha
Method in brief: as §4

[31] = test system: fig-leafed goosefoot; assay: Test Example 4: weedkilling efficacy by foliar treatment; M: fig-leafed goosefoot; details: treatment dosage 1250 g/ha
Method in brief: as §4

[32] = test system: chickweed; assay: Test Example 4: weedkilling efficacy by foliar treatment; N: chickweed; details: treatment dosage 1250 g/ha
Method in brief: as §4

[33] = test system: catchweed; assay: Test Example 4: weedkilling efficacy by foliar treatment; O: catchweed; details: treatment dosage 1250 g/ha
Method in brief: as §4

[34] = test system: birds-eye speedwell; assay: Test Example 4: weedkilling efficacy by foliar treatment; p: birds-eye speedwell; details: treatment dosage 1250 g/ha
Method in brief: as §4

[35] = test system: directly sown rice; assay: Test Example 4: foliar treatment, effect on crop; b: directly sown rice; details: treatment dosage 1250 g/ha
Method in brief: as §4

[36] = test system: corn; assay: Test Example 4: foliar treatment, effect on crop; c: corn; details: treatment dosage 1250 g/ha
Method in brief: as §4

[37] = test system: soybean; assay: Test Example 4: foliar treatment, effect on crop; d: soybean; details: treatment dosage 1250 g/ha
Method in brief: as §4

[38] = test system: wheat; assay: Test Example 4: foliar treatment, effect on crop; e: wheat; details: treatment dosage 1250 g/ha
Method in brief: as §4

[39] = test system: beet; assay: Test Example 4: foliar treatment, effect on crop; f: beet; details: treatment dosage 1250 g/ha
Method in brief: as §4

CC1=C(c2cccnc2Cl)C(=O)N(C(C)(C)C(=O)Nc2cccc(F)n2)CO1 [B-2-19]
A (barnyard grass) weedkilling efficacy grade [1]: 5 (weed kill ratio 90% or more, (practically complete withering))
B (bulrush) weedkilling efficacy grade [2]: 5 (weed kill ratio 90% or more, (practically complete withering))
C (oval-leafed pondweed) weedkilling efficacy grade [3]: 4 (weed kill ratio 70% or more, less than 90%)
a (transplanted rice) effect on crop grade [4]: 0 (weed kill ratio 5% or less (practically no effect))
A (barnyard grass) weedkilling efficacy grade [5]: 2 (weed kill ratio 20% or more, less than 40%)
B (bulrush) weedkilling efficacy grade [6]: 5 (weed kill ratio 90% or more, (practically complete withering))
C (oval-leafed pondweed) weedkilling efficacy grade [7]: 3 (weed kill ratio 40% or more, less than 70%)
D (crabgrass) weedkilling efficacy grade [8]: 5 (weed kill ratio 90% or more, (practically complete withering))
E (green foxtail) weedkilling efficacy grade [9]: 5 (weed kill ratio 90% or more, (practically complete withering))
G (wild oat) weedkilling efficacy grade [10]: 5 (weed kill ratio 90% or more, (practically complete withering))
H (black-grass) weedkilling efficacy grade [11]: 5 (weed kill ratio 90% or more, (practically complete withering))
I (Italian ryegrass) weedkilling efficacy grade [12]: 5 (weed kill ratio 90% or more, (practically complete withering))
K (Indian mallow) weedkilling efficacy grade [13]: 0 (weed kill ratio 5% or less (practically no effect))
L (redroot pigweed) weedkilling efficacy grade [14]: 4 (weed kill ratio 70% or more, less than 90%)
M (fig-leafed goosefoot) weedkilling efficacy grade [15]: 5 (weed kill ratio 90% or more, (practically complete withering))
N (chickweed) weedkilling efficacy grade [16]: 4 (weed kill ratio 70% or more, less than 90%)
O (catchweed) weedkilling efficacy grade [17]: 0 (weed kill ratio 5% or less (practically no effect))
P (birds-eye speedwell) weedkilling efficacy grade [18]: 4 (weed kill ratio 70% or more, less than 90%)
b (directly sown rice) effect on crop grade [19]: 4 (weed kill ratio 70% or more, less than 90%)
c (corn) effect on crop grade [20]: 0 (weed kill ratio 5% or less (practically no effect))
d (soybean) effect on crop grade [21]: 0 (weed kill ratio 5% or less (practically no effect))
e (wheat) effect on crop grade [22]: 0 (weed kill ratio 5% or less (practically no effect))
f (beet) effect on crop grade [23]: 4 (weed kill ratio 70% or more, less than 90%)
D (crabgrass) weedkilling efficacy grade [24]: 5 (weed kill ratio 90% or more, (practically complete withering))
E (green foxtail) weedkilling efficacy grade [25]: 5 (weed kill ratio 90% or more, (practically complete withering))
G (wild oat) weedkilling efficacy grade [26]: 3 (weed kill ratio 40% or more, less than 70%)
H (black-grass) weedkilling efficacy grade [27]: 5 (weed kill ratio 90% or more, (practically complete withering))
I (Italian ryegrass) weedkilling efficacy grade [28]: 4 (weed kill ratio 70% or more, less than 90%)
K (Indian mallow) weedkilling efficacy grade [29]: 0 (weed kill ratio 5% or less (practically no effect))
L (redroot pigweed) weedkilling efficacy grade [30]: 3 (weed kill ratio 40% or more, less than 70%)
M (fig-leafed goosefoot) weedkilling efficacy grade [31]: 3 (weed kill ratio 40% or more, less than 70%)
N (chickweed) weedkilling efficacy grade [32]: 3 (weed kill ratio 40% or more, less than 70%)
O (catchweed) weedkilling efficacy grade [33]: 3 (weed kill ratio 40% or more, less than 70%)
P (birds-eye speedwell) weedkilling efficacy grade [34]: 5 (weed kill ratio 90% or more, (practically complete withering))
b (directly sown rice) effect on crop grade [35]: 4 (weed kill ratio 70% or more, less than 90%)
c (corn) effect on crop grade [36]: 1 (weed kill ratio 5% or more, less than 20%)
d (soybean) effect on crop grade [37]: 1 (weed kill ratio 5% or more, less than 20%)
e (wheat) effect on crop grade [38]: 0 (weed kill ratio 5% or less (practically no effect))
f (beet) effect on crop grade [39]: 3 (weed kill ratio 40% or more, less than 70%)
